US12428406B2 (PMV Pharmaceuticals, Inc., priority 2019, dated 2025)

molecular target: T1, p53 Y220C (Homo sapiens, UniProt P04637, Y220C); assay: In vitro DNA binding activity assay (HTRF / TR-FRET): stabilization of p53 Y220C and increase of its DNA binding activity; assay type: biochemical; conditions: recombinant His-tagged p53 Y220C DNA binding domain (aa 94-312), biotin-labeled consensus DNA, incubated at 27° C. or 29° C. for 60 min
T1 construct: The recombinant protein was a truncation mutant containing only amino acids 94-312 of p53; made in house; host or cells: E. coli
T1 sequence (P04637 94-312, change not shown): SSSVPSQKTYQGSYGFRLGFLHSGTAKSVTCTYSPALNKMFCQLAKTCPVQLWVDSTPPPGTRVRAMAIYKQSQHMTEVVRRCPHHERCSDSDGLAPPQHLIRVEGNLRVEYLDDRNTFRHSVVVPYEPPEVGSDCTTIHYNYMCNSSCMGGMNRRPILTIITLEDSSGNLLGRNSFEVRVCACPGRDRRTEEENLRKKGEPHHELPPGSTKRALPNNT
How it was run: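 Compounds from 4.5 mM DMSO stocks, 3-fold serial dilutions; room-temperature incubations of 15 and 20 min. SC150 = concentration raising DNA binding by 50% over no-compound control.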

SMILES	SC150 (concentration of the compound required to increase the DNA binding activity by 50%)
COCC(O)CN1CCC(Nc2cccc3c2cc(C#CCNc2cc(F)c(C(N)=O)cc2OC)n3CC(F)(F)F)CC1 (stereo not shown) [Compound 683A, 2-fluoro-4-{[3-(4-{[1-(2-hydroxy-3-methoxypropyl)piperidin-4-yl]amino}-1-(2,2,2-trifluoroethyl)-1H-indol-2-yl)prop-2-yn-1-yl]amino}-5-methoxybenzamide]	+ (+ = 0 μM ≤ SC150 < 0.05 μM)
COCC(O)CN1CCC(Nc2cccc3c2cc(C#CCNc2ccc(S(=O)(=O)C4CC4)cc2OC)n3CC(F)(F)F)CC1 (stereo not shown) [Compound 685A, 1-(4-{[2-(3-{[4-(cyclopropanesulfonyl)-2-methoxyphenyl]amino}prop-1-yn-1-yl)-1-(2,2,2-trifluoroethyl)-1H-indol-4-yl]amino}piperidin-1-yl)-3-methoxypropan-2-ol]	+ (+ = 0 μM ≤ SC150 < 0.05 μM)
COc1cc(S(C)(=O)=O)ccc1NCC#Cc1cc2c(NC3CCN(CCC#N)CC3)cccc2n1CC(F)(F)F [Compound 686A]	+ (+ = 0 μM ≤ SC150 < 0.05 μM)
COc1cc(S(C)(=O)=O)ccc1NCC#Cc1cc2c(NC3CCN(CC4CCCO4)CC3)cccc2n1CC(F)(F)F (stereo not shown) [Compound 688A, 2-{3-[(4-methanesulfonyl-2-methoxyphenyl)amino]prop-1-yn-1-yl}-N-{1-[(oxolan-2-yl)methyl]piperidin-4-yl}-1-(2,2,2-trifluoroethyl)-1H-indol-4-amine]	+ (+ = 0 μM ≤ SC150 < 0.05 μM)
COCC(O)CN1CCC(Nc2cccc3c2cc(C#CCNc2ccc(C(F)(F)F)cc2OC)n3CC(F)(F)F)CC1 (stereo not shown) [Compound 689A, 1-methoxy-3-(4-{[2-(3-{[2-methoxy-4-(trifluoromethyl)phenyl]amino}prop-1-yn-1-yl)-1-(2,2,2-trifluoroethyl)-1H-indol-4-yl]amino}piperidin-1-yl)propan-2-ol]	+++ (+++ = 0.1 μM ≤ SC150 < 0.2 μM)
CNC(=O)c1cc(OC)c(NCC#Cc2cc3c(NC4CCN(CC(O)COC)CC4)cccc3n2CC(F)(F)F)cc1F (stereo not shown) [Compound 690A, 2-fluoro-4-{[3-(4-{[1-(2-hydroxy-3-methoxypropyl)piperidin-4-yl]amino}-1-(2,2,2-trifluoroethyl)-1H-indol-2-yl)prop-2-yn-1-yl]amino}-5-methoxy-N-methylbenzamide]	+ (+ = 0 μM ≤ SC150 < 0.05 μM)
COCC(O)CN1CCC(Nc2cccc3c2cc(C#CCNc2ccc(S(=O)(=O)c4ccccc4)cc2OC)n3CC(F)(F)F)CC1 (stereo not shown) [Compound 691A, 1-(4-{[2-(3-{[4-(benzenesulfonyl)-2-methoxyphenyl]amino}prop-1-yn-1-yl)-1-(2,2,2-trifluoroethyl)-1H-indol-4-yl]amino}piperidin-1-yl)-3-methoxypropan-2-ol]	+ (+ = 0 μM ≤ SC150 < 0.05 μM)
COc1cc(S(C)(=O)=O)ccc1NCC#Cc1cc2c(NC3CCN(CC(C)(C)OC)CC3)cccc2n1CC(F)(F)F [Compound 692A, 2-{3-[(4-methanesulfonyl-2-methoxyphenyl)amino]prop-1-yn-1-yl}-N-[1-(2-methoxy-2-methylpropyl)piperidin-4-yl]-1-(2,2,2-trifluoroethyl)-1H-indol-4-amine]	+ (+ = 0 μM ≤ SC150 < 0.05 μM)
COCC(O)CN1CCC(Nc2cccc3c2cc(C#CCNc2ccc(S(=O)(=O)C(C)C)cc2OC)n3CC(F)(F)F)CC1 (stereo not shown) [Compound 694A, 1-methoxy-3-(4-{[2-(3-{[2-methoxy-4-(propane-2-sulfonyl)phenyl]amino}prop-1-yn-1-yl)-1-(2,2,2-trifluoroethyl)-1H-indol-4-yl]amino}piperidin-1-yl)propan-2-ol]	+ (+ = 0 μM ≤ SC150 < 0.05 μM)
COCC(O)CN1CCCC(Nc2cccc3c2cc(C#CCNc2ccc(S(C)(=O)=O)cc2OC)n3CC(F)(F)F)C1 (stereo not shown) [Compound 695A, 1-{3-[(2-{3-[(4-methanesulfonyl-2-methoxyphenyl)amino]prop-1-yn-1-yl}-1-(2,2,2-trifluoroethyl)-1H-indol-4-yl)amino]piperidin-1-yl}-3-methoxypropan-2-ol]	+ (+ = 0 μM ≤ SC150 < 0.05 μM)
CCCn1c(C#CCNc2ccc(S(C)(=O)=O)cc2OC)cc2c(NC3CCN(CC(O)COC)CC3)cccc21 (stereo not shown) [Compound 697A, 1-{4-[(2-{3-[(4-methanesulfonyl-2-methoxyphenyl)amino]prop-1-yn-1-yl}-1-propyl-1H-indol-4-yl)amino]piperidin-1-yl}-3-methoxypropan-2-ol]	+ (+ = 0 μM ≤ SC150 < 0.05 μM)
COCC(O)CN1CCC(Nc2cccc3c2cc(C#CCNc2ccc(S(C)(=O)=O)cc2OC)n3CCF)CC1 (stereo not shown) [Compound 698A, 1-(4-{[1-(2-fluoroethyl)-2-{3-[(4-methanesulfonyl-2-methoxyphenyl)amino]prop-1-yn-1-yl}-1H-indol-4-yl]amino}piperidin-1-yl)-3-methoxypropan-2-ol]	+ (+ = 0 μM ≤ SC150 < 0.05 μM)
COCC(O)CN1CCC(Nc2cccc3c2cc(C#CCNc2ccc(S(C)(=O)=O)cc2OC)n3CC#N)CC1 (stereo not shown) [Compound 699A, 2-(4-{[1-(2-hydroxy-3-methoxypropyl)piperidin-4-yl]amino}-2-{3-[(4-methanesulfonyl-2-methoxyphenyl)amino]prop-1-yn-1-yl}-1H-indol-1-yl)acetonitrile]	+ (+ = 0 μM ≤ SC150 < 0.05 μM)
COCC(O)CN1CCC(Nc2cccc3c2cc(C#CCNc2ccc(S(C)(=O)=O)cc2OC)n3CCCl)CC1 (stereo not shown) [Compound 700A, 1-(4-{[1-(2-chloroethyl)-2-{3-[(4-methanesulfonyl-2-methoxyphenyl)amino]prop-1-yn-1-yl}-1H-indol-4-yl]amino}piperidin-1-yl)-3-methoxypropan-2-ol]	+ (+ = 0 μM ≤ SC150 < 0.05 μM)
COCC(O)CN1CCC(Nc2cccc3c2cc(C#CCNc2ccc(S(C)(=O)=O)cc2C)n3CC(F)(F)F)CC1 (stereo not shown) [Compound 703A, 1-{4-[(2-{3-[(4-methanesulfonyl-2-methylphenyl)amino]prop-1-yn-1-yl}-1-(2,2,2-trifluoroethyl)-1H-indol-4-yl)amino]piperidin-1-yl}-3-methoxypropan-2-ol]	+ (+ = 0 μM ≤ SC150 < 0.05 μM)
COCC(O)CN1CCC(Nc2cccc3c2cc(C#CCNc2ccc(S(C)(=O)=O)cc2OC)n3CC2CC2(F)F)CC1 (stereo not shown) [Compound 704A, 1-[4-({1-[(2,2-difluorocyclopropyl)methyl]-2-{3-[(4-methanesulfonyl-2-methoxyphenyl)amino]prop-1-yn-1-yl}-1H-indol-4-yl}amino)piperidin-1-yl]-3-methoxypropan-2-ol]	++ (++ = 0.05 μM ≤ SC150 < 0.1 μM)
COCC(O)CN1CCC(Nc2cccc3c2cc(C#CCNc2ccc(C(=O)O)cc2OC)n3CC(F)(F)F)CC1 (stereo not shown) [Compound 705A, 4-{[3-(4-{[1-(2-hydroxy-3-methoxypropyl)piperidin-4-yl]amino}-1-(2,2,2-trifluoroethyl)-1H-indol-2-yl)prop-2-yn-1-yl]amino}-3-methoxybenzoic acid]	+ (+ = 0 μM ≤ SC150 < 0.05 μM)
COc1cc(S(C)(=O)=O)ccc1NCC#Cc1cc2c(NC3CCN(CCCS(C)(=O)=O)CC3)cccc2n1CC(F)(F)F [Compound 706A, 2-{3-[(4-methanesulfonyl-2-methoxyphenyl)amino]prop-1-yn-1-yl}-N-[1-(3-methanesulfonylpropyl)piperidin-4-yl]-1-(2,2,2-trifluoroethyl)-1H-indol-4-amine]	+ (+ = 0 μM ≤ SC150 < 0.05 μM)
COc1cc(C(=O)O)ccc1NCC#Cc1cc2c(NC3CCN(CCCS(C)(=O)=O)CC3)cccc2n1CC(F)(F)F [Compound 707A, 4-{[3-(4-{[1-(3-methanesulfonylpropyl)piperidin-4-yl]amino}-1-(2,2,2-trifluoroethyl)-1H-indol-2-yl)prop-2-yn-1-yl]amino}-3-methoxybenzoic acid]	+ (+ = 0 μM ≤ SC150 < 0.05 μM)
COCC(O)CN1CCC(Nc2cccc3c2cc(C#CCNc2ccc(S(C)(=O)=O)cc2C(F)(F)F)n3CC(F)(F)F)CC1 (stereo not shown) [Compound 708A, 1-(4-{[2-(3-{[4-methanesulfonyl-2-(trifluoromethyl)phenyl]amino}prop-1-yn-1-yl)-1-(2,2,2-trifluoroethyl)-1H-indol-4-yl]amino}piperidin-1-yl)-3-methoxypropan-2-ol]	++ (++ = 0.05 μM ≤ SC150 < 0.1 μM)
COCC(O)CN1CCC(Nc2cccc3c2cc(C#CCNc2ccc(S(C)(=O)=O)cc2OC)n3CC(F)F)CC1 (stereo not shown) [Compound 709A, 1-(4-{[1-(2,2-difluoroethyl)-2-{3-[(4-methanesulfonyl-2-methoxyphenyl)amino]prop-1-yn-1-yl}-1H-indol-4-yl]amino}piperidin-1-yl)-3-methoxypropan-2-ol]	+ (+ = 0 μM ≤ SC150 < 0.05 μM)
COCC(O)CN1CCC(Nc2cccc3c2cc(C#CCNc2ccc(S(C)(=O)=O)cc2OC(F)(F)F)n3CC(F)(F)F)CC1 (stereo not shown) [Compound 710A, 1-(4-{[2-(3-{[4-methanesulfonyl-2-(trifluoromethoxy)phenyl]amino}prop-1-yn-1-yl)-1-(2,2,2-trifluoroethyl)-1H-indol-4-yl]amino}piperidin-1-yl)-3-methoxypropan-2-ol]	+ (+ = 0 μM ≤ SC150 < 0.05 μM)
